The structures appear in SMILES notation. pIC50: −log10 of the molar value. Where a name gives a salt, the structure may show the parent alone.

This passage reports IC50 results from US20260109690A1, “HDAC6 INHIBITORS AND METHOD OF THEIR USE” (Baerenkraft Therapeutics, LLC., priority 2024, published 2026).

The first experiment deals with T1, HDAC6 (Homo sapiens, UniProt Q9UBN7).
T1 sequence (Q9UBN7 1-1215): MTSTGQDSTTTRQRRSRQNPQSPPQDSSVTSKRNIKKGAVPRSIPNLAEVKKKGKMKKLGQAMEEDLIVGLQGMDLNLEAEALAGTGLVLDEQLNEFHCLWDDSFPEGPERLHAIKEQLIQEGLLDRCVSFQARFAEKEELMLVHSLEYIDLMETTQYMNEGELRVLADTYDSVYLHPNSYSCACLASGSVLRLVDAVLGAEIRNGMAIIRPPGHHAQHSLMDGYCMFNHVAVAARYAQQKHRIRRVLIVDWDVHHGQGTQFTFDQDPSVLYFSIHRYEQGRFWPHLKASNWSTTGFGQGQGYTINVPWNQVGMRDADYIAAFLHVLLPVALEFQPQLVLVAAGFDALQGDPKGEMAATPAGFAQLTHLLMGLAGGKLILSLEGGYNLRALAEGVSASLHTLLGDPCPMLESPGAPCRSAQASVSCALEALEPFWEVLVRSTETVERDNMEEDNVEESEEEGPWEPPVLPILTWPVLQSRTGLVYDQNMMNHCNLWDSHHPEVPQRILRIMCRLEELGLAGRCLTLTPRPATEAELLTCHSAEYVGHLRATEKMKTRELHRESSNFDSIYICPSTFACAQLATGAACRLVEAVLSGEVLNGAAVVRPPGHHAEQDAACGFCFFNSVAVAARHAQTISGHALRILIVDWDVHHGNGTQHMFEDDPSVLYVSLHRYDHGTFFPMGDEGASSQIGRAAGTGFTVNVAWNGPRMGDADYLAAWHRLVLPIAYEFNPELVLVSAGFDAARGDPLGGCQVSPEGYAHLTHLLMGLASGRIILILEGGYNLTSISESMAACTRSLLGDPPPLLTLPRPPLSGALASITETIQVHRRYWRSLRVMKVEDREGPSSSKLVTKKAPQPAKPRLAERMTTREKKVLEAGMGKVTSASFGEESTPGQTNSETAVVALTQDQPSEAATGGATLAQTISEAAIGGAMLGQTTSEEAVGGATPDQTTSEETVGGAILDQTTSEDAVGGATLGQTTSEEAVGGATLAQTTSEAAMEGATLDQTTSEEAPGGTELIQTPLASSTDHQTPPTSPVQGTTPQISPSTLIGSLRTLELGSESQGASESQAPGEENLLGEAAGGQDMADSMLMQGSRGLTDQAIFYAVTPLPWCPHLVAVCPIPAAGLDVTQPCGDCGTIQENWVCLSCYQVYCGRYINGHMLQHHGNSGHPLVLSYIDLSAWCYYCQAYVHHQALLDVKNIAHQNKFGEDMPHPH
The experiment is described as follows: Biochemical HDAC6 inhibitory activity assay. The conditions noted are these: 10-dose IC50 mode, in singlet, 3-fold serial dilution starting at 1 μM; read-out: HDAC6 IC50.
Broadly, the pIC50 is the negative decadic logarithm of the IC50, by convention in mol/L. For `C[C@H]1CN(Cc2ccc(Nc3nccc(-c4ccc(C(=O)NO)cc4)n3)cc2F)CCO1` [Compound I-15, (S)-4-(2-((3-fluoro-4-((2-methylmorpholino)methyl)phenyl)amino)pyrimidin-4-yl)-N-hydroxybenzamide], the pIC50 was 7.80.

Still in this experiment, the particulars now being: read-out: HDAC6 IC50.
As for `Fc1cc(Nc2nccc(-c3ccc(-c4nnc(C(F)F)o4)cn3)n2)ccc1N1CCOCC1` [Compound I-40, 4-(5-(5-(difluoromethyl)-1,3,4-oxadiazol-2-yl)pyridin-2-yl)-N-(3-fluoro-4-morpholinophenyl)pyrimidin-2-amine], the pIC50 was 5.00 to 6.00. The same measure, in the same setting: with `CCNNC(=O)c1ccc(-c2nc(N3CCC4(CC3)COC4)ncc2Cl)cc1` [Compound I-24, 4-(5-chloro-2-(2-oxa-7-azaspiro[3.5]nonan-7-yl)pyrimidin-4-yl)-N′-ethylbenzohydrazide] the figure was < 4.00; with `CC1CCN(Cc2ccc(Nc3nccc(-c4ccc(C(=O)NO)cc4)n3)cc2F)CC1` [Compound I-6, 4-(2-((3-fluoro-4-((4-methylpiperidin-1-yl)methyl)phenyl)amino)pyrimidin-4-yl)-N-hydroxybenzamide], > 6.00. `C[C@@H]1CN(Cc2ccc(Nc3nccc(-c4ccc(-c5nnc(C(F)F)o5)cc4)n3)cc2F)CCO1` [Compound I-32, (R)-4-(4-(5-(difluoromethyl)-1,3,4-oxadiazol-2-yl)phenyl)-N-(3-fluoro-4-((2-methylmorpholino)methyl)phenyl)pyrimidin-2-amine TFA salt]: the pIC50 was 5.00 to 6.00. For `CCNNC(=O)c1ccc(-c2ccnc(Nc3ccc(C(=O)N4CCOCC4)cc3)n2)cc1` [Compound I-19, N′-ethyl-4-(2-((4-(morpholine-4-carbonyl)phenyl)amino)pyrimidin-4-yl)benzohydrazide], the pIC50 is > 6.00. For the compound `C[C@H]1CN(Cc2ccc(Nc3nccc(-c4ccc(-c5nnc(C(F)F)o5)cc4)n3)cc2F)CCO1` [Compound I-30, (S)-4-(4-(5-(difluoromethyl)-1,3,4-oxadiazol-2-yl)phenyl)-N-(3-fluoro-4-((2-methylmorpholino)methyl)phenyl)pyrimidin-2-amine], the pIC50 is 5.00 to 6.00. Still for that read-out and setting: with `CC1CN(C(C)c2ccc(Nc3nccc(-c4ccc(C(=O)NO)cc4)n3)cc2F)CCO1` (stereo not shown) [Compound I-13, 4-(2-((3-fluoro-4-(1-(2-methylmorpholino)ethyl)phenyl)amino)pyrimidin-4-yl)-N-hydroxybenzamide] the figure was > 6.00. In the case of `C[C@@H]1CN(Cc2ccc(Nc3nccc(-c4ccc(-c5nnc(C(F)F)o5)cc4F)n3)cc2F)CCO1` [Compound I-33, (R)-4-(4-(5-(difluoromethyl)-1,3,4-oxadiazol-2-yl)-2-fluorophenyl)-N-(3-fluoro-4-((2-methylmorpholino)methyl)phenyl)pyrimidin-2-amine], the pIC50 is > 6.00. The same measure, in the same setting: with `C[C@H]1CN(Cc2ccc(Nc3nccc(-c4ccc(C(=O)NO)cc4)n3)cc2F)CCO1` [Compound I-15, (S)-4-(2-((3-fluoro-4-((2-methylmorpholino)methyl)phenyl)amino)pyrimidin-4-yl)-N-hydroxybenzamide] the figure was > 6.00; with `C[C@H]1CN(Cc2ccc(-c3ccnc(Nc4ccc(-c5nnc(C(F)F)o5)cc4F)n3)c(F)c2)CCO1` [Compound I-36, (S)-N-(4-(5-(difluoromethyl)-1,3,4-oxadiazol-2-yl)-2-fluorophenyl)-4-(2-fluoro-4-((2-methylmorpholino)methyl)phenyl)pyrimidin-2-amine], 5.00 to 6.00; with `C[C@H]1CN(Cc2ccc(Nc3nccc(-c4ccc(-c5nnc(C(F)F)o5)cn4)n3)cc2F)CCO1` [Compound I-34, (S)-4-(5-(5-(difluoromethyl)-1,3,4-oxadiazol-2-yl)pyridin-2-yl)-N-(3-fluoro-4-((2-methylmorpholino)methyl)phenyl)pyrimidin-2-amine], 5.00 to 6.00.

On to `CCNNC(=O)c1ccc(-c2ccnc(N3CCC4(CC3)COC4)n2)cc1` [Compound I-23, 4-(2-(2-oxa-7-azaspiro[3.5]nonan-7-yl)pyrimidin-4-yl)-N′-ethylbenzohydrazide], for which the pIC50 is > 6.00. Same read-out and setting: with `C[C@@H]1CN(Cc2ccc(Nc3nccc(-c4ccc(-c5nnc(C(F)F)o5)cn4)n3)cc2F)CCO1` [Compound I-35, (R)-4-(5-(5-(difluoromethyl)-1,3,4-oxadiazol-2-yl)pyridin-2-yl)-N-(3-fluoro-4-((2-methylmorpholino)methyl)phenyl)pyrimidin-2-amine] the figure was 4.46 to 5.00.

As for `CCNNC(=O)c1ccc(-c2ccnc(Nc3ccc(C(=O)N4CCOCC4)c(F)c3)n2)cc1` [Compound I-18, N′-ethyl-4-(2-((3-fluoro-4-(morpholine-4-carbonyl)phenyl)amino)pyrimidin-4-yl)benzohydrazide], the pIC50 was > 6.00. Same read-out and setting: with `CCNNC(=O)c1ccc(-c2ccnc(N3CCOCC3)n2)cc1` [Compound I-21, N′-ethyl-4-(2-morpholinopyrimidin-4-yl)benzohydrazide] the figure was > 6.00; with `CC1CCN(C(=O)c2ccc(Nc3nccc(-c4ccc(C(=O)NO)cc4)n3)cc2F)CC1` [Compound I-3, 4-(2-((3-fluoro-4-(4-methylpiperidine-1-carbonyl)phenyl)amino)pyrimidin-4-yl)-N-hydroxybenzamide], > 6.00; with `N#CNC(=O)c1ccc(-c2ccnc(Nc3ccc(C(=O)N4CCOCC4)c(F)c3)n2)cc1` [Compound I-2, N-cyano-4-(2-((3-fluoro-4-(morpholine-4-carbonyl)phenyl)amino)pyrimidin-4-yl)benzamide], < 4.00. Consider `C[C@H]1CN(Cc2ccc(Nc3nccc(-c4ccc(-c5nnc(C(F)F)o5)cc4F)n3)cc2F)CCO1` [Compound I-31, (S)-4-(4-(5-(difluoromethyl)-1,3,4-oxadiazol-2-yl)-2-fluorophenyl)-N-(3-fluoro-4-((2-methylmorpholino)methyl)phenyl)pyrimidin-2-amine], for which the pIC50 is > 6.00. Same read-out and setting: the result for `Cc1cc(-c2ccnc(Nc3ccc(N4CCOC(C)C4)c(F)c3)n2)ccc1C(=O)NO` (stereo not shown) [Compound I-12, 4-(2-((3-fluoro-4-(2-methylmorpholino)phenyl)amino)pyrimidin-4-yl)-N-hydroxy-2-methylbenzamide] reads 5.00 to 6.00; that for `C[C@@H]1CN(c2ccc(Nc3nccc(-c4ccc(-c5nnc(C(F)F)o5)cn4)n3)cc2F)CCO1` [Compound I-39, (R)-4-(5-(5-(difluoromethyl)-1,3,4-oxadiazol-2-yl)pyridin-2-yl)-N-(3-fluoro-4-(2-methylmorpholino)phenyl)pyrimidin-2-amine], 5.00 to 6.00; that for `CC(c1ccc(Nc2nccc(-c3ccc(C(=O)NO)cc3)n2)cc1F)N1CCN(C)CC1` (stereo not shown) [Compound I-10, 4-(2-((3-fluoro-4-(1-(4-methylpiperazin-1-yl)ethyl)phenyl)amino)pyrimidin-4-yl)-N-hydroxybenzamide], > 6.00.

For `CC1CN(c2ccc(Nc3nccc(-c4ccc(C(=O)NO)cc4)n3)cc2F)CCO1` (stereo not shown) [Compound I-11, 4-(2-((3-fluoro-4-(2-methylmorpholino)phenyl)amino)pyrimidin-4-yl)-N-hydroxybenzamide], the pIC50 was > 6.00. Consider `CCNNC(=O)c1ccc(-c2nc(N3CCOCC3)ncc2Cl)cc1` [Compound I-22, 4-(5-chloro-2-morpholinopyrimidin-4-yl)-N′-ethylbenzohydrazide], for which the pIC50 is < 4.00. As for `O=C(NO)c1ccc(-c2nc(Nc3ccc(C(=O)N4CCOCC4)c(F)c3)ncc2Cl)cc1` [Compound I-17, 4-(5-chloro-2-((3-fluoro-4-(morpholine-4-carbonyl)phenyl)amino)pyrimidin-4-yl)-N-hydroxybenzamide], the pIC50 is > 6.00. Still for that read-out and setting: with `CCNNC(=O)c1ccc(-c2ccnc(NC(=O)N3CCOCC3)n2)cc1` [Compound I-20, N-(4-(4-(2-ethylhydrazine-1-carbonyl)phenyl)pyrimidin-2-yl)morpholine-4-carboxamide] the figure was 5.00 to 6.00; with `CN1CCN(C(=O)c2ccc(Nc3nccc(-c4ccc(C(=O)NO)cc4)n3)cc2F)CC1` [Compound I-4, 4-(2-((3-fluoro-4-(4-methylpiperazine-1-carbonyl)phenyl)amino)pyrimidin-4-yl)-N-hydroxybenzamide], > 6.00. `C[C@H]1CN(c2ccc(Nc3nccc(-c4ccc(-c5nnc(C(F)F)o5)cn4)n3)cc2F)CCO1` [Compound I-38, (S)-4-(5-(5-(difluoromethyl)-1,3,4-oxadiazol-2-yl)pyridin-2-yl)-N-(3-fluoro-4-(2-methylmorpholino)phenyl)pyrimidin-2-amine]: the pIC50 was 5.00 to 6.00.
